Test results reported in BindingDB's records for PubMed 34029774 (Dpsr University, 2021).

Assays:
[1] = biological target: Prostaglandin G/H synthase 2 (Ovis aries); assay: Inhibition of ovine COX-2 using arachidonic acid as substrate measured after 2 mins by colorimetric enzyme immune assay
[2] = biological target: Prostaglandin G/H synthase 2 (Homo sapiens) (UniProt P35354); assay: Binding affinity to human recombinant COX-2 assessed as inhibition constant preincubated for 5 mins followed by arachidonic acid addition measured every 30 sec for 10 mins by fluorescence based assay
[3] = biological target: Prostaglandin G/H synthase 2 (Ovis aries); assay: Inhibition of ovine COX-2 by colorimetric inhibitor screening assay
[4] = biological target: Prostaglandin G/H synthase 2 (Ovis aries); assay: Inhibition of ovine COX-2 colorimetric enzyme immunoassay

Chain of Prostaglandin G/H synthase 2 (Homo sapiens) (P35354 whole entry, looked up): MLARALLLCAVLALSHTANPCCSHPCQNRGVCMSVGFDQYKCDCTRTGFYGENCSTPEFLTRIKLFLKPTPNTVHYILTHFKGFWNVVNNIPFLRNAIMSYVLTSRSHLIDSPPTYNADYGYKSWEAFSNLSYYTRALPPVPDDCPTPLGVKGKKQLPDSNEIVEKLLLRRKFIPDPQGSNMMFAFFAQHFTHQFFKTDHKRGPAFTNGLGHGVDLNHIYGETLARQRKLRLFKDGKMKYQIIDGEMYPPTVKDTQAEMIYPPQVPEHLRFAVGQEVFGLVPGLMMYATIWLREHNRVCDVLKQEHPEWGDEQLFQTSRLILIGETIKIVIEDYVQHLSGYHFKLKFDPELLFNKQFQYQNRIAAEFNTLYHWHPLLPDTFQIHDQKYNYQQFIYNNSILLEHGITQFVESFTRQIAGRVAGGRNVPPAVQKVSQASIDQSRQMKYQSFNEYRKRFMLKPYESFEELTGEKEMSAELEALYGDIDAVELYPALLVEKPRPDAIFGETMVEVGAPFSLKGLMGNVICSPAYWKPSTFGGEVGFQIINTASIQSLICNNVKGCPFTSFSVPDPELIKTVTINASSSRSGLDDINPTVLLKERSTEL

IC50 [1]	IC50 [4]	Structure (SMILES)	other results
110 nM	–	C/C(=N/Nc1ccc(C(=O)O)cc1)c1cccc(N2C(=O)c3ccccc3C2=O)c1	–
–	–	C=C(/C=C\C)/C(CSc1nnc(-c2cc(-c3ccc(OC)cc3)nc3ccccc23)n1-c1ccccc1)=N\O	Ki [2]: 94600 nM
–	–	CC1=C(CC(=O)Sc2ccccc2)c2cc(F)ccc2/C1=C\c1ccc([S+](C)[O-])cc1 (stereo unspecified)	IC50 [3]: 1200 nM
170 nM	–	COc1ccc(/C=C/C(=O)c2cccc(N3C(=O)c4ccccc4C3=O)c2)cc1OC	–
–	7.2 nM	COc1ccc2cc(C(C)C(=O)O/N=C(\N)c3ccc(Cl)cc3)ccc2c1 (stereo unspecified)	–
–	6.4 nM	COc1ccc2cc(C(C)C(=O)O/N=C(\N)c3ccc(OC)c(OC)c3)ccc2c1 (stereo unspecified)	–
